# Test results published in publication PMC5845537 (Frontiers in Pharmacology, 2018).
# Where two headings read alike, the source gives them in different places.
# Tests used:
# [1] = system: 5-HT3 receptor; test: 5-HT3 receptor occupancy (literature); assay type: in vivo, rat; details: 0.22 g/kg subchronic dose; estimated based on known SERT:5-HT3 receptor occupancy relationships; ref Leiser et al., 2014
# [2] = system: SERT; details: cited from earlier work
# [3] = system: 5-HT3 receptor; details: 2014, cited from earlier work
# [4] = system: 5-HT1B receptors; details: 2014, cited from earlier work
# [5] = system: 5-HT1A receptors; details: 2014, cited from earlier work
# [6] = system: 5-HT7 receptors; details: 2014, cited from earlier work
# [7] = system: rodent 5-HT1A receptors; details: rodent vs human; no reference given; cited from earlier work
# [8] = system: rodent 5-HT7 receptors; details: rodent vs human; no reference given; cited from earlier work
# [9] = 10 mg/kg 1 h s.c., full occupancy, ref Leiser et al.
# [10] = subchronic dose used in the mouse OR and object placement tasks, ref Wallace et al., Waller et al., 2017
# [11] = 10 mg/kg 1 h s.c., ref Leiser et al.
# [12] = subchronic dose used in the mouse OR and object placement tasks, expected, ref Wallace et al., Waller et al., 2017
smiles,measurement,setting,value
Cc1ccc(Sc2ccccc2N2CCNCC2)c(C)c1 [vortioxetine],occupancy at 5-HT3 receptors,[1],full occupancy
same,occupancy at the SERT,"[2]; 1 mg/kg acute dose, ref Leiser et al., 2014",60–65%
same,occupancy at SERT,"[2]; 10 mg/kg 1 h s.c., full occupancy, ref Leiser et al., 2014",≥ 80%
same,occupancy at the SERT,"[2]; 0.22 g/kg subchronic dose (food), ref Waller et al., 2017",approximately 50%
same,occupancy at SERT,"[2]; subchronic dose used in the mouse OR and object placement tasks, ref Wallace et al., 2014, Waller et al., 2017",full occupancy
same,SERT occupancy,"[2]; the vortioxetine doses used, ref Stenkrona et al., 2013, Leiser et al., 2014",50–90%
same,occupancy at the 5-HT3 receptor,"[3]; 1 mg/kg acute dose, ref Leiser et al.",full occupancy
same,occupancy at 5-HT3 receptors,[3]; [9],≥ 80%
same,occupancy at 5-HT3 receptors,[3]; [10],full occupancy
same,occupancy at 5-HT1B receptors,[4]; [9],≥ 80%
same,occupancy at 5-HT1B receptors,[4]; [10],approximately 50%
same,occupancy at 5-HT1A receptors,[5]; [11],≈ 40%
same,occupancy at 5-HT1A receptors,[5]; [12],negligible
same,occupancy at 5-HT7 receptors,[6]; [11],≈ 40%
same,occupancy at 5-HT7 receptors,[6]; [12],negligible
same,lesser affinity at rodent 5-HT1A receptors by comparison to humans,[7],approximately 10 fold
same,lesser affinity at rodent 5-HT7 receptors by comparison to humans,[8],approximately 10 fold
